This is an account of results in patent US20130130306A1, “ZN (II) BASED COLORIMETRIC SENSOR AND PROCESS FOR THE PREPARATION THEREOF” (COUNCIL OF SCIENTIFIC & INDUSTRIAL RESEARCH, priority 2010, published 2013).

The nature of data set [1]: Absorption and 31P NMR study of binding to various anions. As for the experimental part:
In order to examine the binding behaviour of the Zn-complex (L.Zn) (Scheme 1, Formula 1A) to various important anions (like ATP, CTP, ADP, AMP, PPi, H2PO4^−, SO4^2−, CH3CO2^−, I^−, Br^−, Cl^− and F^−) the following experiment was conducted. A solution (˜21 mM) for of sodium salts of ATP, CTP, ADP, AMP, PPi, H2PO4^−, SO4^−, CH3CO2^−, I^−, Br^−, Cl^−, and F^− were prepared using respective salt in 10 mM HEPES buffer solutions (pH 7.2) and was stored for use. Further, a solution (44.35 μM) of the compound L.Zn (Scheme 1, Formula 1A) was prepared using doubly-distilled and deionized water and stored. These stored solutions were used on the day of preparation of the solution for experiment. […]

Data set [2] relates to Yeast cells (Saccharomyces cerevisiae). Put plainly: Staining of Yeast cells, light microscopy and SEM. The class given is cell-based. As for the experimental part: The isolates of Saccharomyces sp. were cultured in GYE (glucose yeast extract agar) media, Bacillus sp. in Nutrient broth, and Pseudomonas sp. in King's B medium for 24 hour at 37° C. […] of this was taken and was allowed to incubate at 30 to 40° C. along with 100 μl of L.Zn (Scheme 1, Formula 1A) (1.16×10^−4 M) solution. The samples were fixed overnight at room temperature 25-30° C. with 2% (v/v) glutaraldehyde in 0.1 M phosphate buffer at pH 7.5. The samples were then washed with 0.1 M phosphate buffer (pH 7.5) at room temperature 25-30° C. for 1 hour. Post-fixation was carried out in 2% (w/v) osmium tetroxide (OsO4) in the same buffer and was washed once with 0.1 M phosphate buffer for 20 minutes. Then, the water was removed by a graded water-ethanol series; 25% ethanol for 15 min, 50% ethanol for 15 min, 75% ethanol for 30 min, 90% ethanol for 60 min, absolute alcohol for 30 min. The specimens were rinsed in buffer and coated with gold in a sputter coater (Polaron SC7620) prior to microscopy. The material was examined in a Scanning Electron Microscope (SEM) LEO 1430 VP at an accelerating Voltage of 15 kV.
The isolates of Saccharomyces sp. were cultured in GYE (glucose yeast extract agar) media, Bacillus sp. in Nutrient broth, and Pseudomonas sp. in King's B medium for 24 hour at 37° C. 1001 of this was taken and was allowed to incubate at room temperature along with 1001 of [L.Zn]=1.16×10^−4M solution (pH 7.2, 10 mM HEPES buffer solution). The samples were fixed overnight at 25 to 35° C. with 2% (v/v) glutaraldehyde in 0.1 M phosphate buffer at pH 7.5. The samples were then; washed with 0.1 M phosphate buffer (pH 7.5) at 25 to 35° C. for 1 hour. Post-fixation was carried out in 2% (w/v) osmium tetroxide (OsO4) in the same buffer and was washed once with 0.1 M phosphate buffer for 20 minutes. Then, the water was removed by a graded water-ethanol series; 25% ethanol for 15 min, 50% ethanol for 15 min, 75% ethanol for 30 min, 90% ethanol for 60 min, absolute alcohol for 30 min. The specimens were rinsed in buffer and coated with gold in a sputter coater (Polaron SC7620) prior to microscopy. The material was examined in a scanning electron microscope (SEM) LEO 1430 VP at an accelerating Voltage of 15 kV.
We have therefore, been able to use the receptor molecule, L.Zn (Scheme 1, Formula 1A) for staining Eukaryotic cells. Yeast cells were exposed to the receptor molecule L.Zn (Scheme 1, Formula 1A) (1.16×10^−4 M) for 20 min or L.Zn-CD (Scheme 2) (([L.Zn]=0.5×10^−3 M [α-CD]=2.92×10^−3 M) for 2 min followed by subsequent washing with water mixtures and then viewed under a light microscope (AXIO IMAGER-Carl Zeiss).
Ethanol is known to act as a dehydrator and a good fixative of biological samples. […] This confirms the binding of the ATP ions of the cell surface to L.Zn (Scheme 1, Formula 1A) as the plausible reason for the observed staining. […] This observation could be explained on the basis of the reversible binding of ATP, produced in situ in the Yeast cells.

Take `CN(C)c1ccc(N=Nc2ccc(S(=O)(=O)N3CCCNCCNCCCNCC3)cc2)cc1.O=[N+]([O-])[O-].O=[N+]([O-])[O-].[Zn+2]` [L.Zn]: in data set [1] (31P NMR and spectral data), the “observed binding preference / trend in binding affinity” value is “ATP>>CTP>ADP>>AMP”. In addition, the “change of absorption spectrum on addition of other anions” value in data set [1] (2000 equivalents of other anions, pH 7.2) is on record as “no change was observed”. Also, the “color of Yeast cells after treatment” value in data set [2] (L.Zn 0.116 mM, light microscopy) is recorded as “pink-violet”. The “growth of colonies streaked on nutrient agar plates after incubation with sensor” value in data set [2] (Saccharamyces species in GYE media, sensor 1.0×10^−4 M, 25° C., 10 mins) is “colonies of the test microbes grew”. In addition, the “control experiments: change in color of Yeast cells” value in data set [2] (control treatment of cells) was “no such change in color was observed”. In addition, the “destaining of stained Yeast cells by citrate (reversible binding)” value in data set [2] (excess (50 mole equivalent) of citrate ion) is “became colorless”. Moreover, the “stability of staining after washing” value in data set [2] (washing with water/ethanol (70/30, v/v)) was “stable”.
